# Results reported in patent US7884067B2, “Peptides derived from cadherin and methods of use thereof” (Mount Sinai School of Medicine of New York University, priority 2001, dated 2011).
# What was measured:
# N-cadherin = assay: In vitro γ-secretase-like ε-cleavage assay, membranes of WT-PS1-transfected HEK293 cells; type: biochemical, human; details: membranes from WT-PS1-transfected clone #7, presence of L-685,458, 37° C. 2 hours
# Protocol: In vitro γ-secretase-like ε-cleavage assay. Cells were washed in PBS, resuspended in 1 ml of 4° C. hypotonic buffer (10 mM MOPS, pH 7.0, 10 mM KCl) and homogenized on ice. A post-nuclear supernatant was prepared by centrifugation at 1000×g for 15 minutes at 4° C. Crude membranes were isolated from the post-nuclear supernatant by centrifugation at 16,000×g for 40 minutes at 4° C. The membranes were then resuspended in […] of assay buffer (150 mM sodium citrate, pH 6.4, 1× Complete protease inhibitor cocktail), and incubated at 37° C. for 2 hours. Samples were either analyzed directly by WB or separated into pellet (P100) and supernatant (S100) fractions by ultracentrifugation for 1 hour at 100,000×g at 4° C. The S100 and P100 fractions were then analyzed by WB.
# Membranes from PS1−/− (FIG. 7C, lane 1) or PS1+/+ (FIG. 7C, lanes 2-4) fibroblasts or from N2a cell cultures (FIG. 7C, lanes 5-6) incubated for 16 hours in the absence or presence of DMSO or L-685,458 ([…]), were incubated at 37° C. for 2 hours, separated by centrifugation in a pellet (P100, FIG. 7C, upper panels) and a soluble (S100, FIG. 7C, lower panels) fractions and then probed on WBs with C32 antibody. […]
# [1] = tested on: CRE-dependent transactivation; assay: CRE-dependent transactivation in N2a cells; type: cell-based, mouse; set-up: dose or concentration left out as unconfirmed; details: 16 hours, vs DMSO, FIG. 10A
# Protocol: (§1) Transactivation assays. CRE-dependent transactivation was measured in the absence or presence of overexpression of PKA (pFC-PKA, Stratagene) by cotransfection with CRE-luciferase reporter plasmid (pCRE-Luc, Stratagene) and pSV-β-galactosidase vector (Promega) to evaluate transfection efficiency. CHOP-mediated transactivation was measured by cotransfection with the Gal4-fusion trans-activator plasmids (pFA-CHOP and pFR-Luc, Stratagene). 30 hours after transfection, luciferase and β-galactosidase activities were determined following manufacturer's instructions using a TD-20/20 luminometer (Turner Designs) and a DU-64 spectrophotometer (Beckman). Values were normalized to β-galactosidase activity and protein concentration.
# N2a cells co-transfected with plasmids pCRE-luc, pFC-PKA, and pSV-β-galactosidase were incubated for 16 hours with DMSO or with L-685,458 ([…]) and CRE-dependent transactivation was measured as described above. […] Total RNA isolated from N2a cells treated either with DMSO or with L-685,458, was analyzed by semiquantitative RT-PCR using specific primers for c-fos and gapdh. The graph in FIG. 10B represents the relative abundance of c-fos-specific PCR products following quantitation of the mRNA signals shown in the upper panel. […]
# [2] = tested on: CRE-dependent transactivation; assay: CRE-dependent luciferase activity in HEK293 cultures stably transfected with WT-PS1; type: cell-based, human; details: presence of L-685,458, FIG. 9B
# Protocol: as §1
# HEK293 cultures stably transfected either with vector or WT-PS1 were co-transfected with pFC-PKA, pCRE-Luc, and pSV-β-galactosidase in the presence or absence of L-685,458 and then processed for CRE-dependent luciferase activity. Data in FIGS. 9A and B are the mean+/−s.e. of 4 experiments normalized to β-galactosidase activity and protein concentration. *, P<0.05; ***, P<0.001 (Student's t test).
# CBP/CREB complex = molecular target: T1, CBP/CREB complex (Mus musculus, UniProt P45481); assay: Electrophoretic mobility shift assay, CREB probe; type: biochemical; details: nuclear extract from cells transfected with 0.2 μg and 0.5 μg pN-Cad/CTF2, FIG. 11C lanes 6-8
# T1 construct: full length mouse CBP inserted into vector pRc/RSV; expressed in transfected cells; host or cells: L cells transfected with mouse CBP (pRc/RSV), without or with 0.2 or 0.5 µg pN-Cad/CTF2; nuclear extract
# Protocol: Electrophoresis mobility shift assay (EMSA). Nuclear extract from CBP-transfected L cells were prepared using the extraction kit N-XTRACT (Sigma) according to manufacturer's instructions. Ten microgram of nuclear extract was used for EMSA performed according to manufacturer's instructions using biotinylated double-stranded oligonucleotide probes containing DNA-binding motifs for CREB or MEF-1 (Panomics). Probes are as follow: CREB, 5′-[…]-3′ (SEQ ID NO: 17); MEF-1,5′-[…]-3′ (SEQ ID NO: 18). Reaction products were separated on 6% polyacrylamide gels in cold TBE buffer (50 mM Tris-HCl, 45 mM Boric acid, 0.5 mM EDTA), transferred to nylon membranes (Immobilon-Ny+, Millipore) and bound probes were immobilized for 30 minutes at 85° C. and visualized by chemiluminescence using streptavidin-HRP conjugate. For antibody supershift analysis, nuclear extract was incubated for 3 hours at 4° C. with […] of 1 B6 antibody prior to probe addition. Where indicated, nuclear extract ([…]) was immunoprecipitated with A-22 antibody ([…]) and protein A-agarose in EBC buffer (50 mM Tris, pH 8, 120 mM NaCl, 0.5% NP40, 1× Complete protease inhibitor cocktail).
# T1 sequence (P45481 whole entry, one chain of several): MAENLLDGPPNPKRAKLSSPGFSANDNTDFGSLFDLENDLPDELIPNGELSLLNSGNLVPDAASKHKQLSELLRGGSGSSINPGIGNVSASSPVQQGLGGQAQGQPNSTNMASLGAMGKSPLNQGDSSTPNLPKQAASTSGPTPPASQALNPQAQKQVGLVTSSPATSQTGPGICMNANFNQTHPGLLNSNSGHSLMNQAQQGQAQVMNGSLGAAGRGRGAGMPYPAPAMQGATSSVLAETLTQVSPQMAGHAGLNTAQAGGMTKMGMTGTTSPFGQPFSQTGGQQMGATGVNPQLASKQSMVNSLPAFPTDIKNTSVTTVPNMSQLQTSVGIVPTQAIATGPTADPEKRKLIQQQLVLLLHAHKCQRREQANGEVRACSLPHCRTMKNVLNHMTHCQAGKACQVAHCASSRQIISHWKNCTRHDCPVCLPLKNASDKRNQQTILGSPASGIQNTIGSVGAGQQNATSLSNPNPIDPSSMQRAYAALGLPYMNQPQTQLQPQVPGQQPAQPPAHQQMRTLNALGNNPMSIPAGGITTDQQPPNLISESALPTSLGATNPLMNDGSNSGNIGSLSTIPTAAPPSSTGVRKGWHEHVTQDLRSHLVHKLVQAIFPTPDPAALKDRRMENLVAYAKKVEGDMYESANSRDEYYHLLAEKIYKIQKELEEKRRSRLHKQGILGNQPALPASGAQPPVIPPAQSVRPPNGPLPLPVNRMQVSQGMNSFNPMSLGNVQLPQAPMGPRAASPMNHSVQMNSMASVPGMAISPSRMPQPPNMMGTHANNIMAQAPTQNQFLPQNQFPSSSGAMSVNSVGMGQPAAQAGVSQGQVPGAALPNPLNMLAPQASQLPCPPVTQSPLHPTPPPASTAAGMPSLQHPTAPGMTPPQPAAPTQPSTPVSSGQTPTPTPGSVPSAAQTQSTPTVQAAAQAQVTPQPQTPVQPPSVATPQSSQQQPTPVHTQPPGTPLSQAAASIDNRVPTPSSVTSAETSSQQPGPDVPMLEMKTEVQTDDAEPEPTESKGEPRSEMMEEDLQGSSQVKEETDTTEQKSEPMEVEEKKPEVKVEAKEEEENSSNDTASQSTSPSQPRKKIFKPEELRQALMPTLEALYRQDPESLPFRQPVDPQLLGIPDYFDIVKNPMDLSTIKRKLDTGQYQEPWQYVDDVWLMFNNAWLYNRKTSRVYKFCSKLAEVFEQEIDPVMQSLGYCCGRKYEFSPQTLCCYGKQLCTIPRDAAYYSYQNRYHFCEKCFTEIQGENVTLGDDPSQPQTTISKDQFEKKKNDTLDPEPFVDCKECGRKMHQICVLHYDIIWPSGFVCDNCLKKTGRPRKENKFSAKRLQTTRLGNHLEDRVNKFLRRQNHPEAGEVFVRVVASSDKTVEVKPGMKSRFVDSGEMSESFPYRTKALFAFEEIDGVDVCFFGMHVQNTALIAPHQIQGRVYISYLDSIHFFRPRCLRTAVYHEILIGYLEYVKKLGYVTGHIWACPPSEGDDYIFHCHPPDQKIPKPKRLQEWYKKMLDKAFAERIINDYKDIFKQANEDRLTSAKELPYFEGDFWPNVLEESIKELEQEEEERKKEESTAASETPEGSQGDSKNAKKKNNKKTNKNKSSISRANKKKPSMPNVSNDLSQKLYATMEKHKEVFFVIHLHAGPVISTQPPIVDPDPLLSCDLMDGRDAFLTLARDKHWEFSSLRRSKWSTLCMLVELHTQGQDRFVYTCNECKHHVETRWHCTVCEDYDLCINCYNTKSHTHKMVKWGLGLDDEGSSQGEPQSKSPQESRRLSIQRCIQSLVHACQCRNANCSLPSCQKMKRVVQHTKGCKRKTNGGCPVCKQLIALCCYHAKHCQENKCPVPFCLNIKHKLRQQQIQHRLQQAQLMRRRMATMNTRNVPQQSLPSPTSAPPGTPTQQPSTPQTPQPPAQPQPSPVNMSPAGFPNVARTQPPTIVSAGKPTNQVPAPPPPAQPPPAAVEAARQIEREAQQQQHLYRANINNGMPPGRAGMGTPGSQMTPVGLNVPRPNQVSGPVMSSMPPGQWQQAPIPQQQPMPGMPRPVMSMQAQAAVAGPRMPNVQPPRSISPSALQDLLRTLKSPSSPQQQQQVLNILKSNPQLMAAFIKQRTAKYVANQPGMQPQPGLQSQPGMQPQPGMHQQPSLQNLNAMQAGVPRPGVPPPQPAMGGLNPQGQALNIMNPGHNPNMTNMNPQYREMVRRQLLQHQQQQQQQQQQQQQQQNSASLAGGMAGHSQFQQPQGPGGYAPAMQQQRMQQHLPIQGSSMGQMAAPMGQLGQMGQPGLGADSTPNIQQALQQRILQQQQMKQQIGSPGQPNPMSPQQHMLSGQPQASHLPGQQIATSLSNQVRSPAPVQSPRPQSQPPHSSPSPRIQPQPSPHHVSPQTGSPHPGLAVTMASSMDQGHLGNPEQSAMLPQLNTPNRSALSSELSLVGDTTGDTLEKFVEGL
decrease of CRE-dependent transactivation caused by PS1 overexpression [2],Molecule,N-Cad/CTF2 production (N-cadherin),CRE-dependent transactivation [1],formation of a CBP/CREB complex on CRE-containing DNA templates (CBP/CREB complex)
reversed,"CC(C)C[C@H](NC(=O)[C@H](Cc1ccccc1)C[C@@H](O)[C@H](Cc1ccccc1)NC(=O)OC(C)(C)C)C(=O)N[C@@H](Cc1ccccc1)C(N)=O [L-685,458]",no N-Cad/CTF2 was detected,increased,–
–,"N-Cad/CTF2: chicken cytoplasmic domain of N-cadherin (N-Cad/CTF2) inserted into vector pECE, expressed in L cells (protein) KRRDKERQAKQLLIDPEDDVRDNILKYDEEGGGEEDQDYDLSQLQQPDTVEPDAIKPVGIRRLDERPIHAEPQYPVRSAAPHPGDIGDFINEGLKAADNDPTAPPYDSLLVFDYEGSGSTAGSLSSLNSSSSGGEQDYDYLNDWGPRFKKLADMYGGGDD",–,–,defective in their ability to promote formation of a CBP/CREB complex
